Assay results from patent US20260027096A1, “PHD INHIBITORS” (Oxford University Innovation Limited, priority 2023, published 2026).

Columns and labels:
[1] = system: human multiple myeloma cell lines; test: Apoptosis of multiple myeloma cell lines; assay type: cell-based; settings: 50 μM, versus the control
Procedure: Apoptosis of multiple human MM cell lines derived from different patients (AWO^WT, H292, KMS12, RPMI, U266 and MM.1S) treated with vehicle control, 50 μM Daprodustat (2). Data represent mean±SEM; * p<0.05; ** p<0.01, *** p<0.001.
Viable cells were counted by trypan blue exclusion at the indicated time points. To analyse cells undergoing apoptosis, cells were suspended in binding buffer containing PE-conjugated Annexin-V or FITC-conjugated Annexin-V, and either PI or DAPI.

[2] = system: HIF-2α in MOLM13, OCI-AML3, MV411 and THP-1 cells; test: Western blot of HIF-2α in human AML cell lines; assay type: cell-based; settings: 48 hrs
Procedure: Equipped with currently available PHD inhibitors and newly generated IOX5 (68, example 46), the impact of pharmacological PHD inhibition on AML cells was assessed. […] Thus, while PHD inhibition consistently stabilises HIF-1α protein across all tested AML cell lines, HIF-2α stabilisation is variable and cell line-specific.

[3] = system: iMLL-AF9 AML cells; test: RNA-seq analysis of iMLL-AF9 AML cells; assay type: cell-based, mouse
Procedure: Total RNA was extracted from 500,000 leukaemic cells using RNeasy Plus Universal Mini Kit (QIAGEN, Cat. No. 73404) following the manufacture's protocol. The RNA integrity number (RIN) was determined by High Sensitivity RNA Screen Tape analysis (Agilent, Cat. No. 5067) and all RIN was >8. High sensitivity Libraries for RNA-seq were prepared from 500 ng of total RNA using the NEBNext® Ultra™ II Directional RNA Library Prep Kit for Illumina® (NEB, Cat. No. E7760) with NEBNext Poly(A) mRNA Magnetic Isolation Module (NEB, Cat. No. E7490) following the manufacture's protocol. Nine cycles of PCR were performed to amplify libraries and the pooled library was sequenced on illumina NextSeq 500 with 85 bp single-end mode at EMBL GeneCore facility.
For analysis of differentially expressed genes, adapters were trimmed with cutadapt (version 1.18) using options: -a […]-m 50, and processed reads were mapped to GRCm38 genome_tran (release 84) with HISAT2 (version 2.2.1 (Nature Methods volume 12, pages 357-360 (2015), https://www.nature.com/nmeth)) using following option: —qc-filter. Mapped reads per gene were counted with htseq-count (HTSeq version 2.0.1 (Bioinformatics, Volume 38, Issue 10, 15 May 2022, Pages 2943-2945)) providing GTF file and differentially expressed genes were analysed using DESeq2 (version 1.30.1). […]

[4] = Steady-state haematopoiesis analyses in C57B16 mice; assay type: in vivo, mouse; settings: 30 mg/kg i.p. twice daily for 14 days
Procedure: For steady-state analyses, 8-to 10-week-old mixed gender C57B16 mice were injected intraperitoneally twice daily for 14 days with 30 mg/kg IOX5 or vehicle control. Mice were bled before and after treatment, and culled 12 hrs after the final dosing.
Given that Dap has been deemed safe in murine and human studies^37,72,78, the impact of IOX5 (68, example 46) on normal hematopoiesis was then examined.

[5] = system: MV411 AML cells in NBSGW recipient mice; test: MV411 xenotransplantation in NBSGW mice, combination with Venetoclax; assay type: in vivo, mouse; settings: 14 days treatment; IOX5 i.p. twice daily, Venetoclax o.g. once daily
Procedure: 14 days following transplantation, recipient mice were treated with IOX5 (68, example 46), Venetoclax or vehicle control. Dosing regimen consisted of 2× daily via i.p. injection (IOX5 (68, example 46) or vehicle) and/or 1× daily via o.g. (Venetoclax or vehicle). […] (E-G) Percentage of human CD45+CD33+CD14+ cells in the BM, spleen and liver, respectively (n=5). (H) Survival curve of mice treated with IOX5 (68, example 46), Venetoclax, IOX5 (68, example 46)+Venetoclax or vehicle control (n=6-7). (I-J) Proliferation and Annexin-V+DAPI+analyses, respectively, of THP-1 cells treated with Ven, IOX5, FIH inhibitor (FIHi; DM-NOFD), IOX5 (68, example 46)+FIHi, IOX5 (68, example 46)+Ven, FIHi+Ven, IOX5 (68, example 46)+FIHi+Ven or vehicle control (n=6). Statistical significance represented as in (A-B). Data represent mean±SEM; *p<0.05; ** p<0.01; *** p<0.001; **** p<0.0001.
100,000 THP-1 cells, 100,000 OCI-AM3 cells or 100,000 MV411 cells (for combination experiments) were tail vein injected into non-irradiated 10-to 12-week-old mixed gender NBSGW mice and began drug treatment 14 days after transplantation. […] Mice were culled 5 weeks after transplantation.
Mice in combination treatment experiments with Venetoclax (ABT-199) (MCE) were dosed once daily with 100 mg/kg via oral gavage (o.g.).
Further to findings in Example 170, the efficacy of IOX5 (68, example 46)+Venetoclax combination in vivo was investigated (FIG. 38D). MV411 AML cells were engrafted (with MLL-AF4 and FLT3-ITD mutation) and the recipient mice were treated with a vehicle, IOX5 (68, example 46), Venetoclax, and a combination of IOX5 (68, example 46)+Venetoclax.

[6] = system: BNIP3 protein in THP-1 cells

Structure (SMILES) | apoptosis [1] | HIF-2α protein level (western blot) ([2]; MOLM13 and MV411 cells) | HIF-2α protein level (western blot) ([2]; OCI-AML3 and THP-1 cells) | gene set enrichment analysis (GSEA) of deregulated genes ([3]; 50 μM vs control) | BNIP3 transcript expression ([3]; murine cells) | HSPC compartment [4] | differentiated PB, BM or spleen compartments [4] | erythropoiesis [4] | leukaemic burden [5] | survival of recipient mice [5] | BNIP3 protein (western blot) [6]
O=C(O)CNC(=O)c1c(O)n(C2CCCCC2)c(=O)n(C2CCCCC2)c1=O [Daprodustat, daprodustat, reference compound] | significant apoptosis | – | – | – | – | – | – | – | – | – | –
O=C(NCC1CCC(C(F)(F)F)CC1)c1c[nH]c(-n2cccn2)cc1=O (centres unmarked) [IOX5] | – | did not induce any HIF-2α stabilisation | stabilised HIF-2α protein levels | significant up-regulation of hypoxia signature, HIF-1 signalling, and activation of HIF-inducible pathways | significantly upregulated | no significant defects in the HSPC compartment | no detrimental impact on the differentiated PB, BM or spleen compartments | enhanced erythropoiesis | decreased leukaemic burden | extended survival of the recipient mice | strongly upregulated BNIP3 protein
